In patent US6916834B2, “Preparations and use of an Ah receptor ligand, 2-(1′H-indole-3′-carbonyl)-thiazole-4-carboxylic acid methyl ester” (Wisconsin Alumni Research Foundation, priority 2001, dated 2005):
One block for each compound: values may come before it.

Columns and labels:
Ah receptor [1] = target: T1, Ah receptor (Mus musculus, UniProt P30561); assay: AhR ligand activity assay (luciferase reporter gene, H1L1.1C2 ligand reporting cells); type: cell-based
T1 construct: endogenous in cells; host or cells: H1L1.1C2 AhR ligand reporting cells
T1 sequence (P30561 10-848): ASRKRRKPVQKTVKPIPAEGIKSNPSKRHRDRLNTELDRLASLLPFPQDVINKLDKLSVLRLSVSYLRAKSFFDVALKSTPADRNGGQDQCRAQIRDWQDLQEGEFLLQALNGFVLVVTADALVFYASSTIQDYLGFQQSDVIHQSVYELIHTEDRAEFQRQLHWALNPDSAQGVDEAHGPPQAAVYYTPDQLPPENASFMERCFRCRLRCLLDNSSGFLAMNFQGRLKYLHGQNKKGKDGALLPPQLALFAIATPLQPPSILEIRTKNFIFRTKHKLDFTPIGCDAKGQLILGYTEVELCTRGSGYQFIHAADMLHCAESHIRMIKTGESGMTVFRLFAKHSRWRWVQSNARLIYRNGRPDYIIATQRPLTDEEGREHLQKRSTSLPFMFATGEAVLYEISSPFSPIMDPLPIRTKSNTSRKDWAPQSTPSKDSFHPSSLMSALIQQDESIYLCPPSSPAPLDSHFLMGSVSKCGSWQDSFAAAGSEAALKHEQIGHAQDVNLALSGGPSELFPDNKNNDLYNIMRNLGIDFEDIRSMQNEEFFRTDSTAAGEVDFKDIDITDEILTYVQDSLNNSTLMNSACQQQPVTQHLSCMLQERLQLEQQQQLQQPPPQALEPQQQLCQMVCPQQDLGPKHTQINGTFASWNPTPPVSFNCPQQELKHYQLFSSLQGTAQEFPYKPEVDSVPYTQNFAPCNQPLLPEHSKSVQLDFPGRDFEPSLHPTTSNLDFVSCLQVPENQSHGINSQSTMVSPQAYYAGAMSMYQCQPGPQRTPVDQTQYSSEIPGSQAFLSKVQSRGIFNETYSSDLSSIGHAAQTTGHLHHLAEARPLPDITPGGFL
Experimental: The ligand activity is determined most preferably by an activity assay described below. In brief, the ligand extracts are added to Ah receptor-containing ligand reporter cells. These cells are then incubated for 4 hours and the cells are lysed to release the formed luciferase. This enzyme typically is measured according to the kit sold by Promega (Madison, Wis., USA.). Luciferase activity is measured by light emission recorded by a luminometer. The luminometer readings are taken after a substrate solution is injected into a well.
The cell line H1L1.1C2 was maintained in a culture medium (DMEM+10% FBS) with G418 at a concentration of 400 μg/ml and incubated under an atmosphere of 37° C., 6% CO2, and 100% humidity. A 96 well sterile cell culture plate with about 30,000 cells per well in 200 μl of the culture medium without G418 was prepared and incubated for at least 12 hours before being dosed for ligand activity assay.
The solvents from the ligand activities were evaporated and the activities were reconstituted in DMSO and 1 μl of this solution was used to dose the ligand reporting cells in a well with 200 μl of culture medium. One row of the reporting cells in each assay plate was dosed with 1 μl of the DMSO solutions of a set of βNF standards to generate a standard dose response curve. The dosed cells were incubated for 6 hours under the same environment as they were maintained. The cells were washed twice with a 1×PBS (pH 6.9) after the incubation and the culture wells were scanned under an inverted microscope to detect any obvious cell number change due to dosing. The cells were lysed by adding 50 μl of a 1×cell lysis reagent (Promega, Madison, Wis., USA) and 10 μl of the lysate from each well were transferred into a corresponding well of a Microlite 2 plate (Dynex Technologies Inc., Chantilly, Va., USA) for luminometer reading. A MLX Microtiter Plate Luminometer (Dynex Technologies Inc.) was programmed to inject 50 μl of a luciferase substrate solution (Promega) into a well, read the light intensities in Relative Light Units (RLU's) generated by the luciferase reaction for 5 seconds after a one second delay following the injection, and take the average of the 5 second readings as a final RLU.
Dose response curves of RLU's vs. doses of βNF standards (ng in each assay well) from each plate were plotted and the RLU's generated by the samples were converted into βNF equivalent (BEQ) as ligand activity by consulting the βNF dose response curve generated from the same plate. Data were reported as ligand activity (in BEQ) vs. treatments or fractions from a purification procedure.

Ah receptor [2] = target: T1, Ah receptor; assay: Reduction with NaBH4, phases assayed for biological activity; type: cell-based; details: saturated NaBH4 in ethanol, overnight, room temperature; data not shown
Experimental: Specified quantity of the compound was pipetted into a glass via for reaction and the solvents were evaporated. A saturated solution (100 μl) of NaBH4 in ethanol (200 proof, Aaper Alcohol and Chemical Co. Shelbyville, Ky., U.S.A.) was added to each reaction tube. The mixture was incubated overnight at room temperature and stopped by adding 200 μl of water. The reactions were extracted with 200 μl of chloroform twice and the chloroform phases were pooled. The solvents from both aqueous and chloroform phases were evaporated and both phases were assayed for biological activities. The chloroform phase was analyzed with electron impact mass spectroscopy as was a blank treated identically but containing no isolate.

[3] = Solubility and stability characterisation of the ligand preparation; type: physicochemical
Experimental: The preferred ligand preparation described below can be characterized by its solubility. The ligand is extractable from tissue by 80% methanol/20% water. After the boiling and acid treatment, the ligand is extractable in chloroform.
The ligand preparation is unstable in base but stable in up to two normal acid for at least 24 hours. The preparation is stable to heating at 37° C. overnight (16 hours) and at 100° C. for 24 hours.

Ah receptor [4] = target: T1, Ah receptor; assay: Base treatment followed by ligand activity assay; type: cell-based; details: 0.1 N KOH, 37° C., overnight
Experimental: An aliquot of methanolic extracts of about 4 ng BEQ was transferred into a cleaned glass vial and the solvents were evaporated. A solution (200 ul) of 0.1 N KOH in water was added into the vial. The vials were incubated at 37° C. overnight. After the incubation, the tubes were cooled down and neutralized slowly with HCl. The treatment mixtures were extracted with 200 μl of chloroform. Chloroform and aqueous phases were separated and the solvents were evaporated. DMSO (10 μl) was added to each tube for activity assay. βNF and blank extracts were treated the same way as for the sample.

Ah receptor [5] = target: T1, Ah receptor; assay: Base hydrolysis and methylation, products assayed for biological activity; type: cell-based; details: same manipulations as for the ligand
Experimental: To 2 μl of methanol with 3 ng BEQ of the sample, 38 μl of methanol of 10 μl of a 0.5 mm KOH in water were added and mixed. The reaction was incubated at 37° C. for 2 hours and stopped by adding 10 μl of 0.5 mmolar HCl in water to bring pH to around 5.0. To the reaction mix, 30 μl of water, 10 μl of methanol, and 50 μl of chloroform were added and mixed. The chloroform phase was separated and kept after centrifugation of the mixture. The chloroform extraction was repeated and the two chloroform phases were pooled. The chloroform phase was split into two parts, one for biological assay and the other for methylation. The same manipulations were performed for 3 ng of βNF in 2 μl of methanol and 2 μl of methanol as controls.
The solvents were evaporated and the products were assayed side by side with the hydrolysis products without methylation.

Ah receptor [6] = target: T1, Ah receptor; assay: Heat treatment followed by ligand activity assay; type: cell-based; details: 100° C. water bath, 30 minutes
Experimental: The methanolic extracts either in methanol or DMSO in a cleaned glass vials were heated in a 100° C. water bath for 30 minutes and the vials were cooled to room temperature. The extracts in the solvents were directly assayed as they were to determine the activities.

SMILES: COc1cc(-c2cc(=O)c3ccccc3o2)ccc1[N+](=O)[O-] [3′-methoxy-4′-nitroflavone]
antagonism of the reporter gene response to ITE (Ah receptor [1]; AhR antagonist, data not shown): block the reporter gene response to the compound in a dose dependent fashion

biological activity of synthetic compound compared with the isolate (Ah receptor [1]): the same biological activity
reporter gene potency relative to βNF (Ah receptor [1]; dose response curves after 4 hours of incubation, FIG. 7B): about five
extractability from tissue by 80% methanol/20% water [3]: extractable
stability in base [3]: unstable
time stable in up to two normal acid [3]: at least 24 hours
stability to heating at 100° C. ([3]; 24 hours): stable
extractability in chloroform ([3]; after the boiling and acid treatment): extractable
stability to heating at 37° C. ([3]; overnight (16 hours)): stable
SMILES: COC(=O)c1csc(C(=O)c2c[nH]c3ccccc23)n1 [ITE, 2-(1′-H-indole-3′-carbonyl)-thiazole-4-carboxylic acid methyl ester]
biological activity after reduction with NaBH4 (Ah receptor [2]): completely destroyed the biological activity

induction over vehicle control (Ah receptor [1]; 0.05 ng of βNF per assay well (200 μl medium), 96 well format): two to three
amount generating a distinguishable signal (Ah receptor [1]; per assay well, 96 well format): 0.01 ng
response of ligand activity to base treatment (Ah receptor [4]): did not respond
change in biological activity after hydrolysis and methylation manipulations (Ah receptor [5]): no change
response of ligand activity to heat treatment (Ah receptor [6]): did not respond
SMILES: O=c1cc(-c2ccccc2)oc2ccc3ccccc3c12 [βNF, β-Naphthoflavone]
